Experimental findings from ChEMBL document CHEMBL1687711 are described below.

The source made the active and inactive calls. The rule behind the calls is not given here.

Assay [1] has as its system THP-1. In words: Increase in NF-kappaB-mediated TLR2 mRNA expression in human THP1 cells co-incubated with Aspergillus fumigatus hyphae at 0.5 ug/ml after 6 hrs by RT-PCR analysis. The format is cell-based.
For assay [2], the system named is THP-1. In words: Effect on TLR4 mRNA expression in human THP1 cells at 0.5 ug/ml after 6 hrs by RT-PCR analysis. It is filed as functional, cell-based.
The subject of assay [3] is Aspergillus fumigatus. In words: Antifungal activity against Aspergillus fumigatus AF4215 hyphae co-incubated with monocytes assessed as hyphal damage at 0.1 ug/ml after 6 hrs by XTT assay. It is filed as functional, organism-based. (In general: Tetrazolium dyes change colour on reduction, which living cells bring about.)
Assay [4] concerns THP-1. In words: Effect on TLR4 protein expression in human THP1 cells co-incubated with Aspergillus fumigatus hyphae at 0.5 ug/ml after 6 hrs by Western blot analysis. It is filed as functional, cell-based.
The subject of assay [5] is THP-1. Kind of assay: Increase in NF-kappaB-mediated TLR2 mRNA expression in human THP1 cells at 0.5 ug/ml after 6 hrs by RT-PCR analysis. The format is cell-based.
Assay [6] concerns Aspergillus fumigatus. Kind of assay: Antifungal activity against Aspergillus fumigatus AF4215 hyphae co-incubated with human THP1 cells assessed as hyphal damage at 0.1 ug/ml after 6 hrs by XTT assay. The format is functional, organism-based. The note with it: THP-1.
In assay [7] the test system is THP-1. In words: Increase in NF-kappaB-mediated TLR2 protein expression in human THP1 cells at 0.5 ug/ml after 6 hrs by Western blot analysis. It is filed as cell-based.
Assay [8] deals with THP-1. Kind of assay: Increase in NF-kappaB-mediated TLR2 protein expression in human THP1 cells co-incubated with Aspergillus fumigatus hyphae at 0.5 ug/ml after 6 hrs by Western blot analysis. It is filed as cell-based. (In western blotting, separated proteins are transferred to a membrane and probed.)
The test system of assay [9] is Aspergillus fumigatus. In words: Antifungal activity against Aspergillus fumigatus AF4215 hyphae assessed as hyphal damage at 0.1 ug/ml after 20 hrs by XTT assay. It is filed as functional, organism-based.
In assay [10] the test system is THP-1. Kind of assay: Effect on TLR4 protein expression in human THP1 cells at 0.5 ug/ml after 6 hrs by Western blot analysis. It is filed as functional, cell-based.
Assay [11] concerns THP-1. In words: Increase in NF-kappaB-mediated TNF-alpha mRNA expression in human THP1 cells co-incubated with Aspergillus fumigatus hyphae at 0.5 ug/ml after 6 hrs by RT-PCR analysis. The format is cell-based.
The test system of assay [12] is THP-1. Kind of assay: Increase in NF-kappaB-mediated TNF-alpha mRNA expression in human THP1 cells at 0.5 ug/ml after 6 hrs by RT-PCR analysis. It is filed as cell-based.
Assay [13] concerns Aspergillus fumigatus. In words: Antifungal activity against Aspergillus fumigatus AF4215 hyphae co-incubated with human monocytes assessed as hyphal damage at 0.1 ug/ml after 20 hrs by XTT assay. The format is functional, organism-based.
Assay [14] has as its system THP-1. Kind of assay: Effect on TLR4 mRNA expression in human THP1 cells co-incubated with Aspergillus fumigatus hyphae at 0.5 ug/ml after 6 hrs by RT-PCR analysis. It is filed as functional, cell-based.

Consider `C[C@@H](c1ncncc1F)[C@](O)(Cn1cncn1)c1ccc(F)cc1F`, for which the result in the assay with THP-1 [1], in the assay with Aspergillus fumigatus [3], in the assay on THP-1 [5], in the assay with Aspergillus fumigatus [6], in the assay with THP-1 [7] and in the assay with THP-1 [8] was Active. The outcome in the assay on Aspergillus fumigatus [9], with THP-1 [11], with THP-1 [12] and in the assay on Aspergillus fumigatus [13] was Active. Also, the outcome in the assay with THP-1 [2], in the assay on THP-1 [4], with THP-1 [10] and in the assay on THP-1 [14] was inactive.
